In the supplement of paper PMC11208160:

assay: recombinant UMI read abundance after kanamycin selection (control-corrected) (log10(CPM+1)); higher = more efficient recombination; extreme values may be limits of the assay; sequences stand for … in AGTGCAGAGAAAATCGGCCAGTTTTCTCTGCCTGCAGTCCGCATGCCGTGGGACCCCTTGGGTTCTAACCTGTTGCCTAGATTTATGCAGCGGACTGCCTTTCTCCCAAAGTGATAAACCGG…AGGTTGGTTTCACT; site = the 11-nt donor
How it was run: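 In a pooled Escherichia coli screen for the IS621 bridge recombinase, donor and donor-binding-loop pairs were each placed with a 12-nt UMI on a plasmid bearing a promoterless kanamycin gene. This library was co-electroporated with a target plasmid encoding a fixed target and T7-inducible recombinase, and cells were plated either on IPTG (0.07 mM) plus kanamycin or without selection, in two replicates each. Recombinant UMIs were PCR-amplified across the donor–target junction and sequenced, and counts were converted to CPM, averaged over replicates, scaled by control-derived factors and reported as log10(CPM+1).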
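Also: IS621 bridge recombinase in Escherichia coli cells against a fixed T5 target plasmid.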

Point of comparison: “TGCACACCATGGACCGGTTTTCCCGGTAATCCGTATTTGAC (site TGGACACCTGT)”, “recombinant UMI read abundance (log10)” value 0. Against it:
- TGAGGTCCATGGACCGGTTTTCCCGGTAATCCGTATTTGGA (site TGAGGTCCTTC) — within 0.2 log units, 0.172
- TGAGTAGCATGGACCGGTTTTCCCGGTAATCCGTATTTGTA (site TGAGTAGCTTA) — higher, 2.48
- TGAGTGGCATGGACCGGTTTTCCCGGTAATCCGTATTTGGT (site AGAGTGGCTAC) — higher, 0.339
- TGAGTGGCATGGACCGGTTTTCCCGGTAATCCGTATTTGGT (site CGAGTGGCTAC) — higher, 0.605
- TGAGTGGCATGGACCGGTTTTCCCGGTAATCCGTATTTGGT (site GGAGTGGCTAC) — within 0.2 log units, 0.0161
- TGAGTGGCATGGACCGGTTTTCCCGGTAATCCGTATTTGGT (site TGAGTGGCTAC) — higher, 0.902
- TGAGTTGCATGGACCGGTTTTCCCGGTAATCCGTATTTGCA (site TGAGTTGCTTG) — higher, 1.47
- TGATAGCCATGGACCGGTTTTCCCGGTAATCCGTATTTGAG (site TGATAGCCTCT) — within 0.2 log units, 0.0234
- TGATAGCCATGGACCGGTTTTCCCGGTAATCCGTATTTGGA (site TGATAGCCTTC) — within 0.2 log units, 0.0136
- TGATAGGCATGGACCGGTTTTCCCGGTAATCCGTATTTGGT (site TGATAGGCTAC) — higher, 0.902
- TGATAGGCATGGACCGGTTTTCCCGGTAATCCGTATTTGGT (site TGCTAGGCTAC) — within 0.2 log units, 0.0143
- TGATAGGCATGGACCGGTTTTCCCGGTAATCCGTATTTGGT (site TGGTAGGCTAC) — within 0.2 log units, 0.0189
- TGATAGGCATGGACCGGTTTTCCCGGTAATCCGTATTTGGT (site TGTTAGGCTAC) — within 0.2 log units, 0.02
- TGATCATCATGGACCGGTTTTCCCGGTAATCCGTATTTGGT (site CGATCATCTAG) — the same, 0
- TGATCATCATGGACCGGTTTTCCCGGTAATCCGTATTTGGT (site TGATCATCTAC) — higher, 1.42
- TGCAAGTCATGGACCGGTTTTCCCGGTAATCCGTATTTGGC (site TGCAAGTCTGC) — higher, 2.11
- TGCACACCATGGACCGGTTTTCCCGGTAATCCGTATTTGAC (site TGAACACCTGT) — the same, 0
- TGCACACCATGGACCGGTTTTCCCGGTAATCCGTATTTGAC (site TGCACACCTGT) — higher, 0.51
- TGCACACCATGGACCGGTTTTCCCGGTAATCCGTATTTGAC (site TGTACACCTGT) — the same, 0
- TGCAGGGCATGGACCGGTTTTCCCGGTAATCCGTATTTGCC (site TGCAGGGCTGG) — higher, 1.82
- TGCAGTGCATGGACCGGTTTTCCCGGTAATCCGTATTTGTT (site TGCAGTGCTAA) — higher, 0.416
- TGCCCCACATGGACCGGTTTTCCCGGTAATCCGTATTTGAC (site TGCCCCACTGT) — higher, 1.39
- TGCCGGCCATGGACCGGTTTTCCCGGTAATCCGTATTTGCC (site TGCCGGCCTGG) — the same, 0
- TGCCGGCCATGGACCGGTTTTCCCGGTAATCCGTATTTGGA (site TGCCGGCCTTC) — within 0.2 log units, 0.0137
- TGCCTTTCATGGACCGGTTTTCCCGGTAATCCGTATTTGAC (site AGCCTTTCTGT) — the same, 0
- TGCCTTTCATGGACCGGTTTTCCCGGTAATCCGTATTTGAC (site CGCCTTTCTGT) — the same, 0
- TGCCTTTCATGGACCGGTTTTCCCGGTAATCCGTATTTGAC (site GGCCTTTCTGT) — the same, 0
- TGCCTTTCATGGACCGGTTTTCCCGGTAATCCGTATTTGAC (site TGCCTTTCTGT) — the same, 0
- TGCGGAACATGGACCGGTTTTCCCGGTAATCCGTATTTGTT (site TGCGGAACTAA) — higher, 0.718
- TGCGGCCCATGGACCGGTTTTCCCGGTAATCCGTATTTGCG (site TGCGGCCCTCG) — within 0.2 log units, 0.0374
- TGCGGTACATGGACCGGTTTTCCCGGTAATCCGTATTTGAG (site TGCGGTACTCT) — higher, 0.757
- TGCGGTCCATGGACCGGTTTTCCCGGTAATCCGTATTTGAA (site TGCGGTCCTTT) — the same, 0
- TGCGGTCCATGGACCGGTTTTCCCGGTAATCCGTATTTGAG (site TGCGGTCCTCT) — within 0.2 log units, 0.0157
- TGCTAAGCATGGACCGGTTTTCCCGGTAATCCGTATTTGGT (site TGCTAAGCTAC) — higher, 0.906
- TGCTAAGCATGGACCGGTTTTCCCGGTAATCCGTATTTGGT (site TGCTACGCTAC) — the same, 0
- TGCTAAGCATGGACCGGTTTTCCCGGTAATCCGTATTTGGT (site TGCTAGGCTAC) — within 0.2 log units, 0.0128
- TGCTAAGCATGGACCGGTTTTCCCGGTAATCCGTATTTGGT (site TGCTATGCTAC) — within 0.2 log units, 0.0152
- TGCTAGACATGGACCGGTTTTCCCGGTAATCCGTATTTGGT (site TGCTAGACTAC) — higher, 0.462
- TGCTAGACATGGACCGGTTTTCCCGGTAATCCGTATTTGGT (site TGCTAGCCTAC) — within 0.2 log units, 0.00952
- TGCTAGACATGGACCGGTTTTCCCGGTAATCCGTATTTGGT (site TGCTAGGCTAC) — within 0.2 log units, 0.0111
- TGCTAGACATGGACCGGTTTTCCCGGTAATCCGTATTTGGT (site TGCTAGTCTAC) — higher, 0.357
- TGCTAGGCATGGACCGGTTTTCCCGGTAATCCGTATTTGGT (site AGCTAGGCTAC) — within 0.2 log units, 0.0183
- TGCTAGGCATGGACCGGTTTTCCCGGTAATCCGTATTTGGT (site CGCTAGGCTAC) — within 0.2 log units, 0.019
- TGCTAGGCATGGACCGGTTTTCCCGGTAATCCGTATTTGGT (site GGCTAGGCTAC) — within 0.2 log units, 0.0224
- TGCTAGGCATGGACCGGTTTTCCCGGTAATCCGTATTTGGT (site TACTAGGCTAC) — within 0.2 log units, 0.00634
- TGCTAGGCATGGACCGGTTTTCCCGGTAATCCGTATTTGGT (site TCCTAGGCTAC) — within 0.2 log units, 0.0105
- TGCTAGGCATGGACCGGTTTTCCCGGTAATCCGTATTTGGT (site TGATAGGCTAC) — within 0.2 log units, 0.00571
- TGCTAGGCATGGACCGGTTTTCCCGGTAATCCGTATTTGGT (site TGCAAGGCTAC) — the same, 0
- TGCTAGGCATGGACCGGTTTTCCCGGTAATCCGTATTTGGT (site TGCCAGGCTAC) — within 0.2 log units, 0.00869
- TGCTAGGCATGGACCGGTTTTCCCGGTAATCCGTATTTGGT (site TGCGAGGCTAC) — within 0.2 log units, 0.00468
- TGCTAGGCATGGACCGGTTTTCCCGGTAATCCGTATTTGGT (site TGCTAAGCTAC) — within 0.2 log units, 0.0704
- TGCTAGGCATGGACCGGTTTTCCCGGTAATCCGTATTTGGT (site TGCTACGCTAC) — within 0.2 log units, 0.0185
- TGCTAGGCATGGACCGGTTTTCCCGGTAATCCGTATTTGGT (site TGCTAGACTAC) — within 0.2 log units, 0.0977
- TGCTAGGCATGGACCGGTTTTCCCGGTAATCCGTATTTGGT (site TGCTAGCCTAC) — within 0.2 log units, 0.0225
- TGCTAGGCATGGACCGGTTTTCCCGGTAATCCGTATTTGGT (site TGCTAGGCTAA) — within 0.2 log units, 0.0155
- TGCTAGGCATGGACCGGTTTTCCCGGTAATCCGTATTTGGT (site TGCTAGGCTAC) — within 0.2 log units, 0.108
- TGCTAGGCATGGACCGGTTTTCCCGGTAATCCGTATTTGGT (site TGCTAGGCTAG) — within 0.2 log units, 0.0108
- TGCTAGGCATGGACCGGTTTTCCCGGTAATCCGTATTTGGT (site TGCTAGGCTAT) — within 0.2 log units, 0.0134
- TGCTAGGCATGGACCGGTTTTCCCGGTAATCCGTATTTGGT (site TGCTAGGCTCC) — within 0.2 log units, 0.0152
- TGCTAGGCATGGACCGGTTTTCCCGGTAATCCGTATTTGGT (site TGCTAGGCTGC) — within 0.2 log units, 0.0103
- TGCTAGGCATGGACCGGTTTTCCCGGTAATCCGTATTTGGT (site TGCTAGGCTTC) — within 0.2 log units, 0.0129
- TGCTAGGCATGGACCGGTTTTCCCGGTAATCCGTATTTGGT (site TGCTAGTCTAC) — within 0.2 log units, 0.00544
- TGCTAGGCATGGACCGGTTTTCCCGGTAATCCGTATTTGGT (site TGCTATGCTAC) — within 0.2 log units, 0.00951
- TGCTAGGCATGGACCGGTTTTCCCGGTAATCCGTATTTGGT (site TGCTCGGCTAC) — within 0.2 log units, 0.0253
- TGCTAGGCATGGACCGGTTTTCCCGGTAATCCGTATTTGGT (site TGCTGGGCTAC) — within 0.2 log units, 0.0136
- TGCTAGGCATGGACCGGTTTTCCCGGTAATCCGTATTTGGT (site TGCTTGGCTAC) — within 0.2 log units, 0.0132
- TGCTAGGCATGGACCGGTTTTCCCGGTAATCCGTATTTGGT (site TGGTAGGCTAC) — within 0.2 log units, 0.00942
